Laboratory results: patent US20150328249A1, “MODULATION OF MYOFIBER REPAIR BY ANTI-MYOSTATIN STRATEGIES AND/OR PPAR GAMMA LIGANDS, ALONE OR IN COMBINATION WITH STEM CELLS, FOR THE THERAPY OF CRITICAL LIMB ISCHEMIA AND OTHER ISCHEMIC PROCESSES AFFECTING THE SKELETAL MUSCLE” (LOS ANGELES BIOMEDICAL RESEARCH INSTITUTE AT HARBOR-UCLA …, priority 2012, published 2015)

Columns and labels:
[1] = system: rat models for insulin resistance and T2DM; assay: Low oral dose pioglitazone in rat models for insulin resistance and T2DM; format: in vivo
db/db diabetic mice = assay: CLI induced by ULFA in db/db diabetic mice, treated with MDSC and/or molsidomine; format: in vivo; settings: 3 weeks
Experimental: CLI was induced by ULFA in db/db diabetic mice and treated as follows (n=8/group), for studying the effect of a long-acting NO donor, molsidomine: 1) Untreated (UT): vehicle; 2) MDSC (SC): MDSC into gastrocnemius; 3) MDSC-molsidomine (SC+Mol): as #2, and IP molsidomine (5 mg/kg/day); 4) Molsidomine (Mol) as in #3, no MDSC. Non-diabetic non-ULFA untreated (ND-UT) mice were controls.
At 3 weeks after initiating treatment, mortality, leg preservation, and limb loss/motion/ischemia were determined. Stem cell, myogenic, angiogenic, lipofibrosis, and neurogenesis markers were assayed in muscle tissue by quantitative histochemistry and immunohisto-chemistry and western blot.

SMILES	side effects ([1]; glycemia-normalizing dose of 12 mg/kg/day)	body weight ([1]; low oral dose 0.6 mg/kg/day)	glycemia ([1]; low oral dose 0.6 mg/kg/day)	follistatin expression in the skeletal muscle (db/db diabetic mice)	stem cell number, expression of stem cell marker nuclear Oct 4a in the skeletal muscle (db/db diabetic mice; gastrocnemius of ischemic leg, quantitative western blot)	number of central nuclei (early stage of myofiber repair) (db/db diabetic mice; hematoxylin-eosin histochemistry)	fat infiltration in the skeletal muscle (Oil Red O) (db/db diabetic mice; quantitative histochemistry)	fibrosis, collagen deposition in the skeletal muscle (Masson trichrome) (db/db diabetic mice; quantitative histochemistry)	vascular endothelial growth factor (VEGF) expression in the skeletal muscle (angiogenesis) (db/db diabetic mice; quantitative western blot)	vascular endothelium, CD-31 expression in the skeletal muscle (db/db diabetic mice; quantitative western blot)	vascular endothelium, von Willebrandt factor expression in the skeletal muscle (db/db diabetic mice; quantitative western blot)	vascular smooth muscle marker calponin in the skeletal muscle (db/db diabetic mice; quantitative western blot)
CCc1ccc(CCOc2ccc(CC3SC(=O)NC3=O)cc2)nc1 (stereo not drawn) [pioglitazone]	obesity and fat infiltration in the tissues	does not exert glycemic control or increase body weight	250 to 300 mg/dL									
CCOC(=O)[N-]c1cn(N2CCOCC2)n[o+]1 [molsidomine]				decrease	reduced this effect	slightly inhibitory	did not reduce	did not exert this noxious effect	also angiogenic	increase	increase	abolished the effect
